# Tests used:
# [1] = The drug is tested on Subdoligranulum variabile strain: DSM15176 for biotransformation. The drug concentrations were measured before and after a 12-h incubation by liquid-chromatography-coupled mass spectrometry (LC–MS); conditions: 2 µM
# [2] = The drug is tested on Bacteroides fragilis strain: T(B)9 for biotransformation. The drug concentrations were measured before and after a 12-h incubation by liquid-chromatography-coupled mass spectrometry (LC–MS); conditions: 2 µM
# [3] = The drug is tested on Clostridium spiroforme strain: DSM1552 for biotransformation. The drug concentrations were measured before and after a 12-h incubation by liquid-chromatography-coupled mass spectrometry (LC–MS); conditions: thomasclavelia spiroformis, 2 µM
# [4] = The drug is tested on Bacteroides uniformis strain: ATCC8492 for biotransformation. The drug concentrations were measured before and after a 12-h incubation by liquid-chromatography-coupled mass spectrometry (LC–MS); conditions: 2 µM
# [5] = victivallis vadensis, 12 h, 2 µM
# [6] = The drug is tested on Ruminococcus gnavus strain: ATCC29149 for biotransformation. The drug concentrations were measured before and after a 12-h incubation by liquid-chromatography-coupled mass spectrometry (LC–MS); conditions: mediterraneibacter gnavus, 2 µM
# [7] = The drug is tested on Eubacterium biforme strain: DSM3989 for biotransformation. The drug concentrations were measured before and after a 12-h incubation by liquid-chromatography-coupled mass spectrometry (LC–MS); conditions: holdemanella biformis, 2 µM
# [8] = The drug is tested on Clostridium sp. strain: fecal isolate for biotransformation. The drug concentrations were measured before and after a 12-h incubation by liquid-chromatography-coupled mass spectrometry (LC–MS); conditions: 2 µM
# [9] = bacteroides eggerthii, 12 h, 2 µM
# [10] = The drug is tested on Proteus penneri strain: ATCC35198 for biotransformation. The drug concentrations were measured before and after a 12-h incubation by liquid-chromatography-coupled mass spectrometry (LC–MS); conditions: 2 µM
# [11] = The drug is tested on Clostridium hathewayi strain: DSM13479 for biotransformation. The drug concentrations were measured before and after a 12-h incubation by liquid-chromatography-coupled mass spectrometry (LC–MS); conditions: hungatella hathewayi, 2 µM
# [12] = The drug is tested on Providencia alcalifaciens strain: DSM30120 for biotransformation. The drug concentrations were measured before and after a 12-h incubation by liquid-chromatography-coupled mass spectrometry (LC–MS); conditions: 2 µM
# [13] = clostridioides difficile, 12 h, 2 µM
# Description: The drug is tested on Clostridium difficile strain: 120 for biotransformation. The drug concentrations were measured before and after a 12-h incubation by liquid-chromatography-coupled mass spectrometry (LC–MS)
# [14] = The drug is tested on Salmonella typhimurium strain: LT2 for biotransformation. The drug concentrations were measured before and after a 12-h incubation by liquid-chromatography-coupled mass spectrometry (LC–MS); conditions: salmonella enterica subsp. enterica, 2 µM
# [15] = The drug is tested on Eggerthella lenta strain: ATCC25559 for biotransformation. The drug concentrations were measured before and after a 12-h incubation by liquid-chromatography-coupled mass spectrometry (LC–MS); conditions: 2 µM
Structure (SMILES),Bacterial Biotransformation [1],Bacterial Biotransformation [2],Bacterial Biotransformation [3],Bacterial Biotransformation [4],Bacterial Biotransformation [5],Bacterial Biotransformation [6],Bacterial Biotransformation [7],Bacterial Biotransformation [8],Bacterial Biotransformation [9],Bacterial Biotransformation [10],Bacterial Biotransformation [11],Bacterial Biotransformation [12],Bacterial Biotransformation [13],Bacterial Biotransformation [14],Bacterial Biotransformation [15]
CN1C(C(=O)Nc2ccccn2)=C(O)c2sccc2S1(=O)=O [TENOXICAM],Compound NOT metabolized,Compound NOT metabolized,Compound NOT metabolized,Compound NOT metabolized,Compound NOT metabolized,Compound NOT metabolized,Compound NOT metabolized,Compound NOT metabolized,Compound NOT metabolized,Compound NOT metabolized,Compound NOT metabolized,–,–,–,–
OC(CCN1CCCCC1)(c1ccccc1)C1CCCCC1 (stereo not drawn) [TRIHEXYPHENIDYL],Compound NOT metabolized,–,Compound NOT metabolized,Compound metabolized,–,Compound NOT metabolized,Compound NOT metabolized,Compound metabolized,–,Compound NOT metabolized,–,Compound NOT metabolized,–,–,–
CC(C)OC(=O)C(C)(C)Oc1ccc(C(=O)c2ccc(Cl)cc2)cc1 [FENOFIBRATE],Compound NOT metabolized,–,Compound NOT metabolized,Compound metabolized,–,–,–,–,Compound metabolized,–,Compound metabolized,–,Compound metabolized,–,–
COc1ccc(CCN(C)CCCC(C#N)(c2ccc(OC)c(OC)c2)C(C)C)cc1OC (stereo not drawn),Compound NOT metabolized,Compound NOT metabolized,–,Compound metabolized,Compound NOT metabolized,Compound NOT metabolized,Compound NOT metabolized,–,Compound NOT metabolized,Compound NOT metabolized,–,Compound NOT metabolized,–,Compound metabolized,–
OCCOCCN1CCN(C2=Nc3ccccc3Sc3ccccc32)CC1 [QUETIAPINE],Compound NOT metabolized,–,–,Compound NOT metabolized,Compound NOT metabolized,Compound NOT metabolized,Compound NOT metabolized,–,Compound NOT metabolized,Compound NOT metabolized,Compound NOT metabolized,Compound NOT metabolized,–,Compound NOT metabolized,–
Nc1c2c(nc3ccccc13)CCCC2 [TACRINE],Compound NOT metabolized,–,Compound NOT metabolized,Compound NOT metabolized,–,Compound NOT metabolized,–,Compound NOT metabolized,Compound NOT metabolized,Compound NOT metabolized,Compound NOT metabolized,–,Compound NOT metabolized,Compound NOT metabolized,–
CC(C)(C)NC[C@H](O)COc1nsnc1N1CCOCC1.O=C(O)/C=C\C(=O)O [TIMOLOL MALEATE],Compound NOT metabolized,–,Compound NOT metabolized,Compound NOT metabolized,–,Compound NOT metabolized,–,Compound NOT metabolized,Compound NOT metabolized,–,Compound NOT metabolized,–,Compound NOT metabolized,–,–
O=C([O-])C[C@H](O)C[C@H](O)/C=C/c1c(C2CC2)nc2ccccc2c1-c1ccc(F)cc1.O=C([O-])C[C@H](O)C[C@H](O)/C=C/c1c(C2CC2)nc2ccccc2c1-c1ccc(F)cc1.[Ca+2] [PITAVASTATIN CALCIUM],–,–,Compound NOT metabolized,Compound NOT metabolized,Compound NOT metabolized,Compound NOT metabolized,–,Compound NOT metabolized,Compound NOT metabolized,–,–,–,Compound NOT metabolized,–,Compound NOT metabolized
O=c1[nH]c2ccccc2n1C1CCN(CCCC(c2ccc(F)cc2)c2ccc(F)cc2)CC1 [PIMOZIDE],Compound NOT metabolized,–,–,Compound NOT metabolized,Compound NOT metabolized,Compound NOT metabolized,–,Compound NOT metabolized,Compound NOT metabolized,–,–,–,–,Compound NOT metabolized,–
COc1cc2nc(N3CCN(C(=O)c4ccco4)CC3)nc(N)c2cc1OC [PRAZOSIN],–,–,Compound NOT metabolized,Compound NOT metabolized,–,–,–,–,Compound NOT metabolized,–,Compound NOT metabolized,–,–,–,–
CN(C/C=C/C#CC(C)(C)C)Cc1cccc2ccccc12 [TERBINAFINE],Compound NOT metabolized,–,–,Compound NOT metabolized,Compound NOT metabolized,Compound NOT metabolized,–,Compound NOT metabolized,Compound NOT metabolized,–,–,–,–,–,Compound NOT metabolized
O=C1C(CC[S+]([O-])c2ccccc2)C(=O)N(c2ccccc2)N1c1ccccc1 (stereo not drawn) [SULFINPYRAZONE],Compound NOT metabolized,–,Compound NOT metabolized,–,Compound NOT metabolized,Compound NOT metabolized,–,–,Compound NOT metabolized,–,Compound NOT metabolized,–,–,–,Compound metabolized
COC1=CC(=O)C[C@@H](C)[C@]12Oc1c(Cl)c(OC)cc(OC)c1C2=O [GRISEOFULVIN],Compound NOT metabolized,Compound metabolized,–,Compound metabolized,Compound NOT metabolized,Compound metabolized,–,Compound metabolized,Compound metabolized,Compound NOT metabolized,Compound NOT metabolized,–,–,Compound NOT metabolized,Compound NOT metabolized
CCCCC1=NC2(CCCC2)C(=O)N1Cc1ccc(-c2ccccc2-c2nnn[nH]2)cc1 [IRBESARTAN],Compound metabolized,–,Compound metabolized,Compound metabolized,Compound NOT metabolized,Compound NOT metabolized,–,Compound metabolized,–,–,Compound metabolized,–,Compound NOT metabolized,–,–
CS(=O)(=O)O.O.O.O.O=C1Cc2cc(CCN3CCN(c4nsc5ccccc45)CC3)c(Cl)cc2N1 [ZIPRASIDONE MESYLATE],Compound NOT metabolized,–,–,Compound NOT metabolized,Compound NOT metabolized,Compound NOT metabolized,–,Compound NOT metabolized,Compound NOT metabolized,–,–,–,–,–,Compound NOT metabolized
C=CC[C@@H]1/C=C(\C)C[C@H](C)C[C@H](OC)[C@H]2O[C@@](O)(C(=O)C(=O)N3CCCC[C@H]3C(=O)O[C@H](/C(C)=C/[C@@H]3CC[C@@H](O)[C@H](OC)C3)[C@H](C)[C@@H](O)CC1=O)[C@H](C)C[C@@H]2OC.O [TACROLIMUS],Compound metabolized,–,–,Compound metabolized,Compound metabolized,Compound metabolized,–,Compound metabolized,Compound metabolized,–,–,–,–,–,Compound metabolized
O=C(NCc1ccccc1)OCCO [BURAMATE],Compound NOT metabolized,–,–,Compound NOT metabolized,Compound NOT metabolized,Compound NOT metabolized,–,Compound NOT metabolized,Compound NOT metabolized,–,–,–,–,–,Compound NOT metabolized
COc1ccc(C(CN(C)C)C2(O)CCCCC2)cc1 (stereo not drawn) [VENLAFAXINE],Compound NOT metabolized,–,–,Compound NOT metabolized,Compound NOT metabolized,Compound NOT metabolized,–,Compound NOT metabolized,Compound NOT metabolized,–,–,–,–,–,Compound NOT metabolized
